Laboratory results: patent EP4635500A1, “THERAPEUTIC AGENT FOR BACTERIAL INFECTION” (Sumitomo Pharma Co., Ltd., priority 2022, dated 2024)
Converted amounts (≈) assume the structure as drawn. Like-named read-outs stand apart in the source and are kept apart here.

Experiments:
[1] = test system: 53 CRE and CPE strains; assay: MICrange, MIC50, MIC80, MIC90 for 53 bacterial isolates (Example 5, Table 5); assay type: cell-based; settings: 53 bacterial isolates
[2] = test system: P. aeruginosa; assay: MIC, broth microdilution, CDC/FDA Antibiotic Resistance Isolate Bank (Example 7, Tables 10, 15); assay type: cell-based; settings: for MIC: Pseudomonas aeruginosa, read-out: MIC
[3] = 26 metallo-carbapenemase-producing P. aeruginosa strains, β-lactamase inhibitor µg/mL in parentheses
[4] = 96 strains of P. aeruginosa, β-lactamase inhibitor µg/mL in parentheses

SMILES: CO/N=C(\C(=O)N[C@@H]1C(=O)N2C(C(=O)[O-])=C(C[n+]3ccn4ncccc43)CS[C@H]12)c1nsc(N)n1 [Cefozopran, cefozopran]
- MIC50 ([1]; read-out: MIC50): 32 µg/mL (≈ 62.1 µM)
- MIC80 ([1]; read-out: MIC80): > 64 µg/mL
- MIC90 ([1]; read-out: MIC90): > 64 µg/mL
- MIC against 26 metallo-carbapenemase-producing strains MIC50 [2, 3]: >64 µg(mL)
- MIC against 26 metallo-carbapenemase-producing strains MIC90 [2, 3]: >64 µg(mL)
- MIC against 26 metallo-carbapenemase-producing strains MICrange [2, 3]: >64 µg(mL)
- MIC against 96 strains of P. aeruginosa MIC50 [2, 4]: 32 µg(mL)
- MIC against 96 strains of P. aeruginosa MIC90 [2, 4]: >64 µg(mL)
- MIC ([2]; P. aeruginosa KUB No. 579, AR Bank # 447): 0.5 µg/mL (≈ 0.97 µM)
- MIC ([2]; P. aeruginosa KUB No. 5083, AR Bank # 250): > 64 µg/mL
- MIC ([2]; P. aeruginosa KUB No. 5551, AR Bank # 54): > 64 µg/mL
- MIC ([2]; P. aeruginosa KUB No. 5561, AR Bank # 64): > 64 µg/mL
- MIC ([2]; P. aeruginosa KUB No. 5587, AR Bank # 90): > 64 µg/mL
- MIC ([2]; P. aeruginosa KUB No. 5589, AR Bank # 92): > 64 µg/mL
- MIC ([2]; P. aeruginosa KUB No. 5591, AR Bank # 94): 64 µg/mL (≈ 124 µM)
- MIC ([2]; P. aeruginosa KUB No. 5592, AR Bank # 95): 1 µg/mL (≈ 1.94 µM)
- MIC ([2]; P. aeruginosa KUB No. 5597, AR Bank # 100): > 64 µg/mL
- MIC ([2]; P. aeruginosa KUB No. 5600, AR Bank # 103): > 64 µg/mL
- MIC ([2]; P. aeruginosa KUB No. 5602, AR Bank # 105): 16 µg/mL (≈ 31 µM)
- MIC ([2]; P. aeruginosa KUB No. 5605, AR Bank # 108): > 64 µg/mL
- MIC ([2]; P. aeruginosa KUB No. 5607, AR Bank # 110): > 64 µg/mL
- MIC ([2]; P. aeruginosa KUB No. 5608, AR Bank # 111): > 64 µg/mL
- MIC ([2]; P. aeruginosa KUB No. 5662, AR Bank # 229): 16 µg/mL (≈ 31 µM)
- MIC ([2]; P. aeruginosa KUB No. 5663, AR Bank # 230): > 64 µg/mL
- MIC ([2]; P. aeruginosa KUB No. 5664, AR Bank # 231): > 64 µg/mL
- MIC ([2]; P. aeruginosa KUB No. 5665, AR Bank # 232): 4 µg/mL (≈ 7.76 µM)
- MIC ([2]; P. aeruginosa KUB No. 5666, AR Bank # 23): 2 µg/mL (≈ 3.88 µM)
- MIC ([2]; P. aeruginosa KUB No. 5667, AR Bank # 234): 2 µg/mL (≈ 3.88 µM)
- MIC ([2]; P. aeruginosa KUB No. 5668, AR Bank # 235): > 64 µg/mL
- MIC ([2]; P. aeruginosa KUB No. 5669, AR Bank # 236): 4 µg/mL (≈ 7.76 µM)
- MIC ([2]; P. aeruginosa KUB No. 5670, AR Bank # 237): 0.5 µg/mL (≈ 0.97 µM)
- MIC ([2]; P. aeruginosa KUB No. 5671, AR Bank # 238): 1 µg/mL (≈ 1.94 µM)
- MIC ([2]; P. aeruginosa KUB No. 5672, AR Bank # 239): > 64 µg/mL
- MIC ([2]; P. aeruginosa KUB No. 5673, AR Bank # 240): > 64 µg/mL
- MIC ([2]; P. aeruginosa KUB No. 5674, AR Bank # 241): > 64 µg/mL
- MIC ([2]; P. aeruginosa KUB No. 5675, AR Bank # 242): > 64 µg/mL
- MIC ([2]; P. aeruginosa KUB No. 5676, AR Bank # 243): > 64 µg/mL
- MIC ([2]; P. aeruginosa KUB No. 5677, AR Bank # 244): 8 µg/mL (≈ 15.5 µM)
- MIC ([2]; P. aeruginosa KUB No. 5678, AR Bank # 245): > 64 µg/mL
- MIC ([2]; P. aeruginosa KUB No. 5679, AR Bank # 246): > 64 µg/mL
- MIC ([2]; P. aeruginosa KUB No. 5680, AR Bank # 247): 4 µg/mL (≈ 7.76 µM)
- MIC ([2]; P. aeruginosa KUB No. 5681, AR Bank # 248): > 64 µg/mL
- MIC ([2]; P. aeruginosa KUB No. 5682, AR Bank # 249): > 64 µg/mL
- MIC ([2]; P. aeruginosa KUB No. 5684, AR Bank # 251): 8 µg/mL (≈ 15.5 µM)
- MIC ([2]; P. aeruginosa KUB No. 5685, AR Bank # 252): 16 µg/mL (≈ 31 µM)
- MIC ([2]; P. aeruginosa KUB No. 5686, AR Bank # 253): 4 µg/mL (≈ 7.76 µM)
- MIC ([2]; P. aeruginosa KUB No. 5687, AR Bank # 254): > 64 µg/mL
- MIC ([2]; P. aeruginosa KUB No. 5688, AR Bank # 255): > 64 µg/mL
- MIC ([2]; P. aeruginosa KUB No. 5689, AR Bank # 256): 0.5 µg/mL (≈ 0.97 µM)
- MIC ([2]; P. aeruginosa KUB No. 5690, AR Bank # 257): 8 µg/mL (≈ 15.5 µM)
- MIC ([2]; P. aeruginosa KUB No. 5691, AR Bank # 258): 1 µg/mL (≈ 1.94 µM)
- MIC ([2]; P. aeruginosa KUB No. 5692, AR Bank # 259): 1 µg/mL (≈ 1.94 µM)
- MIC ([2]; P. aeruginosa KUB No. 5693, AR Bank # 260): 4 µg/mL (≈ 7.76 µM)
- MIC ([2]; P. aeruginosa KUB No. 5694, AR Bank # 261): 4 µg/mL (≈ 7.76 µM)
- MIC ([2]; P. aeruginosa KUB No. 5695, AR Bank # 262): 2 µg/mL (≈ 3.88 µM)
- MIC ([2]; P. aeruginosa KUB No. 5696, AR Bank # 263): 2 µg/mL (≈ 3.88 µM)
- MIC ([2]; P. aeruginosa KUB No. 5697, AR Bank # 264): 0.5 µg/mL (≈ 0.97 µM)
- MIC ([2]; P. aeruginosa KUB No. 5698, AR Bank # 265): 8 µg/mL (≈ 15.5 µM)
- MIC ([2]; P. aeruginosa KUB No. 5699, AR Bank # 266): 8 µg/mL (≈ 15.5 µM)
- MIC ([2]; P. aeruginosa KUB No. 5700, AR Bank # 267): 4 µg/mL (≈ 7.76 µM)
- MIC ([2]; P. aeruginosa KUB No. 5701, AR Bank # 268): 32 µg/mL (≈ 62.1 µM)
- MIC ([2]; P. aeruginosa KUB No. 5702, AR Bank # 269): 1 µg/mL (≈ 1.94 µM)
- MIC ([2]; P. aeruginosa KUB No. 5703, AR Bank # 270): 4 µg/mL (≈ 7.76 µM)
- MIC ([2]; P. aeruginosa KUB No. 5704, AR Bank # 271): 1 µg/mL (≈ 1.94 µM)
- MIC ([2]; P. aeruginosa KUB No. 5705, AR Bank # 272): 0.5 µg/mL (≈ 0.97 µM)
- MIC ([2]; P. aeruginosa KUB No. 5747, AR Bank # 351): > 64 µg/mL
- MIC ([2]; P. aeruginosa KUB No. 5748, AR Bank # 352): > 64 µg/mL
- MIC ([2]; P. aeruginosa KUB No. 5749, AR Bank # 353): > 64 µg/mL
- MIC ([2]; P. aeruginosa KUB No. 5750, AR Bank # 354): 8 µg/mL (≈ 15.5 µM)
- MIC ([2]; P. aeruginosa KUB No. 5751, AR Bank # 355): 16 µg/mL (≈ 31 µM)
- MIC ([2]; P. aeruginosa KUB No. 5752, AR Bank # 356): > 64 µg/mL
- MIC ([2]; P. aeruginosa KUB No. 5753, AR Bank # 357): > 64 µg/mL
- MIC ([2]; P. aeruginosa KUB No. 5754, AR Bank # 358): 16 µg/mL (≈ 31 µM)
- MIC ([2]; P. aeruginosa KUB No. 5755, AR Bank # 359): 16 µg/mL (≈ 31 µM)
- MIC ([2]; P. aeruginosa KUB No. 5756, AR Bank # 360): 8 µg/mL (≈ 15.5 µM)
- MIC ([2]; P. aeruginosa KUB No. 5785, AR Bank # 439): > 64 µg/mL
- MIC ([2]; P. aeruginosa KUB No. 5786, AR Bank # 440): 32 µg/mL (≈ 62.1 µM)
- MIC ([2]; P. aeruginosa KUB No. 5787, AR Bank # 441): > 64 µg/mL
- MIC ([2]; P. aeruginosa KUB No. 5788, AR Bank # 443): > 64 µg/mL
- MIC ([2]; P. aeruginosa KUB No. 5789, AR Bank # 444): > 64 µg/mL
- MIC ([2]; P. aeruginosa KUB No. 5790, AR Bank # 445): 32 µg/mL (≈ 62.1 µM)
- MIC ([2]; P. aeruginosa KUB No. 5793, AR Bank # 449): > 64 µg/mL
- MIC ([2]; P. aeruginosa KUB No. 5798, AR Bank # 455): 32 µg/mL (≈ 62.1 µM)
- MIC ([2]; P. aeruginosa KUB No. 5799, AR Bank # 456): 32 µg/mL (≈ 62.1 µM)
- MIC ([2]; P. aeruginosa KUB No. 5800, AR Bank # 457): > 64 µg/mL
- MIC ([2]; P. aeruginosa KUB No. 5801, AR Bank # 458): 64 µg/mL (≈ 124 µM)
- MIC ([2]; P. aeruginosa KUB No. 5802, AR Bank # 459): 32 µg/mL (≈ 62.1 µM)
- MIC ([2]; P. aeruginosa KUB No. 5804, AR Bank # 862): 32 µg/mL (≈ 62.1 µM)
- MIC ([2]; P. aeruginosa KUB No. 5805, AR Bank # 863): > 64 µg/mL
- MIC ([2]; P. aeruginosa KUB No. 5806, AR Bank # 864): 64 µg/mL (≈ 124 µM)
- MIC ([2]; P. aeruginosa KUB No. 5813, AR Bank # 508): > 0.064 µg/mL
- MIC ([2]; P. aeruginosa KUB No. 5814, AR Bank # 509): > 0.064 µg/mL
- MIC ([2]; P. aeruginosa KUB No. 5815, AR Bank # 510): 0.004 µg/mL (≈ 0.00776 µM)
- MIC ([2]; P. aeruginosa KUB No. 5816, AR Bank # 511): 0.0005 µg/mL (≈ 0.00097 µM)
- MIC ([2]; P. aeruginosa KUB No. 5817, AR Bank # 512): 0.002 µg/mL (≈ 0.00388 µM)
- MIC ([2]; P. aeruginosa KUB No. 5818, AR Bank # 513): 0.016 µg/mL (≈ 0.031 µM)
- MIC ([2]; P. aeruginosa KUB No. 5819, AR Bank # 514): 0.0005 µg/mL (≈ 0.00097 µM)
- MIC ([2]; P. aeruginosa KUB No. 5820, AR Bank # 515): 0.064 µg/mL (≈ 0.124 µM)
- MIC ([2]; P. aeruginosa KUB No. 5821, AR Bank # 516): > 0.064 µg/mL
- MIC ([2]; P. aeruginosa KUB No. 5823, AR Bank # 518): > 0.064 µg/mL
- MIC ([2]; P. aeruginosa KUB No. 5831, AR Bank # 526): 0.008 µg/mL (≈ 0.0155 µM)
- MIC ([2]; P. aeruginosa KUB No. 5832, AR Bank # 527): 0.008 µg/mL (≈ 0.0155 µM)
- MIC ([2]; P. aeruginosa KUB No. 5833, AR Bank # 528): 0.032 µg/mL (≈ 0.0621 µM)
- MIC ([2]; P. aeruginosa KUB No. 5834, AR Bank # 529): 0.008 µg/mL (≈ 0.0155 µM)
